Laboratory results reported in PubChem BioAssay (NCI).
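A five-concentration, 48-hour dose response in 96-well plates underlies each endpoint, interpolated linearly between surrounding concentrations. Definition used: TGI = concentration required for complete inhibition of growth.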

How the values were obtained:
Test in all cases: DTP human tumour cell line panel, 48 h
786-0 renal = system: 786-0 renal
A498 renal = system: A498 renal
A549 NSCLC = system: A549 NSCLC
ACHN renal = system: ACHN renal
CAKI-1 renal = system: CAKI-1 renal
CCRF-CEM leukemia = system: CCRF-CEM leukemia
COLO 205 colon = system: COLO 205 colon
DLD-1 colon = system: DLD-1 colon
DMS 114 small cell lung = system: DMS 114 small cell lung
DMS 273 small cell lung = system: DMS 273 small cell lung
EKVX NSCLC = system: EKVX NSCLC
HCC-2998 colon = system: HCC-2998 colon
HCT-116 colon = system: HCT-116 colon
HCT-15 colon = system: HCT-15 colon
HL-60(TB) leukemia = system: HL-60(TB) leukemia
HOP-18 NSCLC = system: HOP-18 NSCLC
HOP-62 NSCLC = system: HOP-62 NSCLC
HOP-92 NSCLC = system: HOP-92 NSCLC
HT29 colon = system: HT29 colon
IGROV1 ovarian = system: IGROV1 ovarian
K-562 leukemia = system: K-562 leukemia
KM12 colon = system: KM12 colon
KM20L2 colon = system: KM20L2 colon
LOX IMVI melanoma = system: LOX IMVI melanoma
LXFL 529 NSCLC = system: LXFL 529 NSCLC
M14 melanoma = system: M14 melanoma
M19-MEL melanoma = system: M19-MEL melanoma
MALME-3M melanoma = system: MALME-3M melanoma
MOLT-4 leukemia = system: MOLT-4 leukemia
NCI-H226 lung = system: NCI-H226 lung
NCI-H23 lung = system: NCI-H23 lung
NCI-H460 lung = system: NCI-H460 lung
NCI-H522 lung = system: NCI-H522 lung
OVCAR-3 ovarian = system: OVCAR-3 ovarian
OVCAR-4 ovarian = system: OVCAR-4 ovarian
OVCAR-5 ovarian = system: OVCAR-5 ovarian
OVCAR-8 ovarian = system: OVCAR-8 ovarian
RPMI-8226 leukemia = system: RPMI-8226 leukemia
RXF 393 renal = system: RXF 393 renal
RXF-631 renal = system: RXF-631 renal
SF-268 CNS = system: SF-268 CNS
SF-295 CNS = system: SF-295 CNS
SF-539 CNS = system: SF-539 CNS
SK-MEL-28 melanoma = system: SK-MEL-28 melanoma
SK-OV-3 ovarian = system: SK-OV-3 ovarian
SN12C renal = system: SN12C renal
SNB-19 CNS = system: SNB-19 CNS
SNB-75 CNS = system: SNB-75 CNS
SNB-78 CNS = system: SNB-78 CNS
SR leukemia = system: SR leukemia
SW-620 colon = system: SW-620 colon
TK-10 renal = system: TK-10 renal
U251 CNS = system: U251 CNS
UACC-257 melanoma = system: UACC-257 melanoma
UACC-62 melanoma = system: UACC-62 melanoma
UO-31 renal = system: UO-31 renal
XF 498 CNS = system: XF 498 CNS
SK-MEL-2 melanoma = system: SK-MEL-2 melanoma
SK-MEL-5 melanoma = system: SK-MEL-5 melanoma

## CC1CCCc2c1n[nH]c2CC1CC(=O)NC(=O)C1 (stereo unspecified)
786-0 renal
  TGI: > 100 µM
A498 renal
  TGI: > 100 µM
A549 NSCLC
  TGI: > 100 µM
ACHN renal
  TGI: > 100 µM
CAKI-1 renal
  TGI: > 100 µM
CCRF-CEM leukemia
  TGI: > 100 µM
COLO 205 colon
  TGI: > 100 µM
DLD-1 colon
  TGI: > 100 µM
DMS 114 small cell lung
  TGI: > 100 µM
DMS 273 small cell lung
  TGI: > 100 µM
EKVX NSCLC
  TGI: > 100 µM
HCC-2998 colon
  TGI: > 100 µM
HCT-116 colon
  TGI: > 100 µM
HCT-15 colon
  TGI: > 100 µM
HL-60(TB) leukemia
  TGI: > 100 µM
HOP-18 NSCLC
  TGI: > 100 µM
HOP-62 NSCLC
  TGI: > 100 µM
HOP-92 NSCLC
  TGI: > 100 µM
HT29 colon
  TGI: > 100 µM
IGROV1 ovarian
  TGI: > 100 µM
K-562 leukemia
  TGI: > 100 µM
KM12 colon
  TGI: > 100 µM
KM20L2 colon
  TGI: > 100 µM
LOX IMVI melanoma
  TGI: > 100 µM
LXFL 529 NSCLC
  TGI: > 100 µM
M14 melanoma
  TGI: > 100 µM
M19-MEL melanoma
  TGI: > 100 µM
MALME-3M melanoma
  TGI: > 100 µM
MOLT-4 leukemia
  TGI: > 100 µM
NCI-H226 lung
  TGI: > 100 µM
NCI-H23 lung
  TGI: > 100 µM
NCI-H460 lung
  TGI: > 100 µM
NCI-H522 lung
  TGI: > 100 µM
OVCAR-3 ovarian
  TGI: > 100 µM
OVCAR-4 ovarian
  TGI: > 100 µM
OVCAR-5 ovarian
  TGI: > 100 µM
OVCAR-8 ovarian
  TGI: > 100 µM
RPMI-8226 leukemia
  TGI: > 100 µM
RXF 393 renal
  TGI: > 100 µM
RXF-631 renal
  TGI: > 100 µM
SF-268 CNS
  TGI: > 100 µM
SF-295 CNS
  TGI: > 100 µM
SF-539 CNS
  TGI: > 100 µM
SK-MEL-28 melanoma
  TGI: > 100 µM
SK-OV-3 ovarian
  TGI: > 100 µM
SN12C renal
  TGI: > 100 µM
SNB-19 CNS
  TGI: > 100 µM
SNB-75 CNS
  TGI: > 100 µM
SNB-78 CNS
  TGI: > 100 µM
SR leukemia
  TGI: > 100 µM
SW-620 colon
  TGI: > 100 µM
TK-10 renal
  TGI: > 100 µM
U251 CNS
  TGI: > 100 µM
UACC-257 melanoma
  TGI: > 100 µM
UACC-62 melanoma
  TGI: > 100 µM
UO-31 renal
  TGI: > 100 µM
XF 498 CNS
  TGI: > 100 µM

## CSc1ccc(Cc2cc(C(C)(C)C)cc(C(C)(C)C)c2O)cc1
786-0 renal
  TGI: 30.4 µM
A498 renal
  TGI: 29.3 µM
A549 NSCLC
  TGI: 27.3 µM
ACHN renal
  TGI: 29 µM
CAKI-1 renal
  TGI: 30.5 µM
CCRF-CEM leukemia
  TGI: 40 µM
DLD-1 colon
  TGI: 27.1 µM
DMS 114 small cell lung
  TGI: 25.7 µM
DMS 273 small cell lung
  TGI: 26.7 µM
EKVX NSCLC
  TGI: 32.1 µM
HCC-2998 colon
  TGI: 32.5 µM
HCT-116 colon
  TGI: 22.7 µM
HCT-15 colon
  TGI: 27.6 µM
HL-60(TB) leukemia
  TGI: 25.1 µM
HOP-18 NSCLC
  TGI: 33.8 µM
HOP-62 NSCLC
  TGI: 35 µM
HT29 colon
  TGI: 27.5 µM
IGROV1 ovarian
  TGI: 26.7 µM
K-562 leukemia
  TGI: 26.6 µM
KM12 colon
  TGI: 23.4 µM
KM20L2 colon
  TGI: 28.2 µM
LOX IMVI melanoma
  TGI: 22.4 µM
LXFL 529 NSCLC
  TGI: 26.9 µM
M14 melanoma
  TGI: 28.6 µM
M19-MEL melanoma
  TGI: 31.1 µM
MALME-3M melanoma
  TGI: 28.7 µM
MOLT-4 leukemia
  TGI: 23.8 µM
NCI-H23 lung
  TGI: 28.7 µM
NCI-H460 lung
  TGI: 27.2 µM
OVCAR-4 ovarian
  TGI: 28.9 µM
OVCAR-5 ovarian
  TGI: 13.2 µM
OVCAR-8 ovarian
  TGI: 30.7 µM
RPMI-8226 leukemia
  TGI: 20.8 µM
RXF 393 renal
  TGI: 26.3 µM
RXF-631 renal
  TGI: 29.4 µM
SF-268 CNS
  TGI: 29.7 µM
SF-295 CNS
  TGI: 31.6 µM
SF-539 CNS
  TGI: 31.8 µM
SK-MEL-2 melanoma
  TGI: 16.3 µM
SK-MEL-28 melanoma
  TGI: 30.8 µM
SK-MEL-5 melanoma
  TGI: 28.9 µM
SK-OV-3 ovarian
  TGI: 42.4 µM
SN12C renal
  TGI: 28.6 µM
SNB-19 CNS
  TGI: 29.9 µM
SNB-75 CNS
  TGI: 29.7 µM
SNB-78 CNS
  TGI: 28.8 µM
SR leukemia
  TGI: 24.7 µM
SW-620 colon
  TGI: 29.7 µM
TK-10 renal
  TGI: 25.7 µM
U251 CNS
  TGI: 28.6 µM
UACC-257 melanoma
  TGI: 28.2 µM
UACC-62 melanoma
  TGI: 29.2 µM
UO-31 renal
  TGI: 30.7 µM
XF 498 CNS
  TGI: 31.8 µM
